Experimental findings from ChEMBL document CHEMBL3988442, “University of Dundee, Small-Polar-MMV Screening Library” (2021) are described below.

For one experiment, the system named is Plasmodium falciparum. Kind of experiment: Calibr Malaria Delayed Death Assay SOP. It counts as functional, organism-based. The settings on record: for IC50: Plasmodium falciparum.
A short description of experiment [1]: microbe, parasite or virus in culture. The settings on record: Mycobacterium tuberculosis, 72 h, read-out: pIC50 (converted).
Experiment [2] can be described thus: microbe, parasite or virus in culture. The settings on record: Mycobacterium tuberculosis, 96 h, read-out: pIC50 (converted).

For `Fc1ccc(Sc2ccccc2CNC2=NCCN2)cc1.I`, in the experiment with Plasmodium falciparum, the negative-log IC50 (pIC50) (in general, the IC50 on a negative log10 scale, so that one unit is a factor of ten) was 5.875 and the IC50 was 1.21 µM.
For `Fc1ccccc1Sc1ccccc1CNC1=NCCN1.I` the same measures were 5.863 and 1.61 µM.
Take `NC(=O)c1cc(S(=O)(=O)NCCc2ccccc2)cs1`: the IC50 is 247 µM in experiment [1] and above 501 µM in experiment [2].
Take `NC(=O)C1CCCN(CCc2ccccc2)C1` (stereo unspecified): the IC50 in experiment [1] and in experiment [2] was above 501 µM in each case.
Turning to `CN1CCCN(C(=O)c2cc3c(s2)CCCC3)CC1`, the IC50 in experiment [1] was 211 µM; in experiment [2] it was above 501 µM.
Consider `CCc1n[nH]c(SCC(=O)Nc2ccc(Br)cn2)n1`, for which the IC50 in experiment [1] was 144 µM; in experiment [2], 186 µM.
As to `CCCc1cc(C(=O)N2CCCN(C)CC2)cs1`, the IC50 in experiment [1] and in experiment [2] was above 501 µM in each case.
In the case of `CN(C)CCNC(=O)c1ccc(Cl)cc1`, the IC50 in experiment [1] and in experiment [2] was above 501 µM in each case.
Take `NC(=O)c1cccc2nc([C@H]3CCN(Cc4ccccn4)C3)[nH]c12`: in the experiment on Plasmodium falciparum, the pIC50 was 7.592 and the IC50 is 0.0275 µM.
In the experiment on Plasmodium falciparum, `CCC1CN(CC(=O)NCCN2CCCCC2)c2ccccc2S1` (stereo unspecified) showed a negative-log IC50 (pIC50) of 6.107 and an IC50 of 0.937 µM.
In the experiment on Plasmodium falciparum, `COc1ccc(CCC(=O)NCCN2CCC(c3cccs3)CC2)cc1` had a negative logarithm of the IC50 (pIC50) of 6.185 and an IC50 of 0.781 µM.
In the experiment on Plasmodium falciparum, `COc1ccc(-c2c(C)nn3c(=N)c(C#N)n[nH]c23)cc1OC` gave a pIC50 of 6.297 and an IC50 of 0.538 µM.
With `Fc1cccc(CN2C[C@@H]3CN(Cc4ccccn4)C[C@@H]3C2)c1.O=C(O)C(F)(F)F.O=C(O)C(F)(F)F`, in the experiment with Plasmodium falciparum, the negative-log IC50 (pIC50) is given as 6.169 and the IC50 is 0.531 µM.
For `Fc1ccc(CN2CCC3(CC2)CCN(Cc2nccs2)CC3)cc1.O=C(O)C(F)(F)F.O=C(O)C(F)(F)F` the same measures were 6.206 and 0.708 µM.
In the experiment on Plasmodium falciparum, `CN(C)[C@@H]1CCN(c2ncc(F)cn2)[C@H]1Cc1ccccc1.O=C(O)C(F)(F)F.O=C(O)C(F)(F)F` gave a negative logarithm of the IC50 (pIC50) of 6.038 and an IC50 of 0.868 µM.
On to `CN(Cc1ccco1)C[C@H]1OC[C@@H]2CCN(Cc3ccsc3)C[C@@H]21.O=C(O)C(F)(F)F.O=C(O)C(F)(F)F`, for which, in the experiment with Plasmodium falciparum, the pIC50 was 6.029 and the IC50 is 1.29 µM.
In the experiment on Plasmodium falciparum, `CN1CCn2c(-c3cccc(F)c3)cnc2C12CCN(CC1CC1)CC2.O=C(O)C(F)(F)F.O=C(O)C(F)(F)F.O=C(O)C(F)(F)F` gave a pIC50 of 6.083 and an IC50 of 1.1 µM.
In the case of `CN(CCO)CC1COCCN1C(=O)C1(c2cccs2)CCCC1.O=CO` (stereo unspecified), in the experiment on Plasmodium falciparum, the pIC50 is 6.007 and the IC50 is 0.573 µM.
For `I.c1ccc(Sc2ccc3c(c2)OCO3)c(CNC2=NCCN2)c1` the same measures were 6.103 and 0.604 µM.
Regarding `CC(N)Cc1ccccc1Sc1ccccc1.O=C(O)/C=C\C(=O)O` (stereo unspecified), in the experiment on Plasmodium falciparum, the negative-log IC50 (pIC50) turned out to be 6.082 and the IC50 is 0.854 µM.
On to `COc1c(F)cc(CN2CC[C@@H](N)[C@H](O)C2)cc1Cl`, for which the IC50 in experiment [1] is 279 µM; in experiment [2], above 501 µM.
For `CC(C)Oc1cccc(-c2cnn(CCC(N)=O)c2)c1` the same measures were 264 µM and 382 µM.
For `CCCN1CCN(C(=O)COc2ccccc2)CC1` the same measures were 33.3 µM and 57.3 µM.
`O=C(COc1ncccn1)Nc1ccc(F)cc1F`: the IC50 in experiment [1] and in experiment [2] was above 501 µM in each case.
Take `CCOc1ccc(C(=O)CCN(C)C)cc1`: the IC50 in experiment [1] is 160 µM; in experiment [2] it was 191 µM.
For `Cc1onc(N)c1S(=O)(=O)NCc1ccccc1Cl` the same measures were 156 µM and above 501 µM.
Take `CC1CN(CCCOc2ccc(C#N)cc2)CCN1` (stereo unspecified): the results for the IC50 in experiment [1] and in experiment [2] were above 501 µM and 390 µM, respectively.
The corresponding values for `CSc1ccc2c(c1)CCN(C(=O)C1CCNC1)C2` (stereo unspecified) are 168 µM and above 501 µM.
For `CN(Cc1nccs1)C(=O)C1COc2ccccc2C1` (stereo unspecified), the IC50 in experiment [1] was 242 µM; in experiment [2] it was 195 µM.
`CC(C)CC1CCN(C(=O)CCn2cnnn2)C1` (stereo unspecified): the figures for the IC50 in experiment [1] and in experiment [2] were 28.3 µM and 77.2 µM, respectively.
The corresponding values for `CNC(=O)c1ccc(Cl)c(S(=O)(=O)N2CCCCC2)c1` are above 501 µM and above 501 µM.
For the compound `CC1CN(CCC(=O)NCc2cccs2)CCCO1` (stereo unspecified), the IC50 in experiment [1] and in experiment [2] was above 501 µM each time.
Consider `Nc1nc(CCCNC(=O)Cc2ccsc2)cs1`, for which the IC50 in experiment [1] and in experiment [2] was above 501 µM in each case.
As to `Cc1cccc(Cl)c1OCCN`, the IC50 was 319 µM in experiment [1] and above 501 µM in experiment [2].
As for `NCC(=O)N1CCCC(COc2ccc(F)cc2)C1` (stereo unspecified), the figures for the IC50 in experiment [1] and in experiment [2] were 220 µM and above 501 µM, respectively.
In the case of `COc1cccc(-c2cnn(CCC(N)=O)c2)c1F`, the IC50 in experiment [1] is 355 µM; in experiment [2], above 501 µM.
The corresponding values for `CCC[C@H]1CN(S(=O)(=O)Cc2ccc(F)cc2)C[C@@H]1N` are above 501 µM and above 501 µM.
For `N[C@@H]1CC[C@H](C(=O)NCCOCc2ccccc2)C1` the same measures were 226 µM and 267 µM.
The corresponding values for `CC(C)c1cc(C(=O)N2CC(c3ccccn3)C2)no1` are 70.5 µM and 60.5 µM.
Turning to `CC(C)CC(O)C(=O)NCc1cc2ccccc2[nH]1` (stereo unspecified), the IC50 in experiment [1] and in experiment [2] was above 501 µM each time.
Consider `NCC1CN(Cc2c(Cl)cncc2Cl)CCO1` (stereo unspecified), for which the results for the IC50 in experiment [1] and in experiment [2] were 70.8 µM and above 501 µM, respectively.
Consider `NC(=O)COc1cccc(CN2CCC(F)CC2)c1`, for which the IC50 in experiment [1] and in experiment [2] was above 501 µM throughout.
For `O=C(CCc1cc(Cl)no1)N1CCOC(C(F)(F)F)C1` (stereo unspecified), the IC50 is above 501 µM in experiment [1] and 134 µM in experiment [2].
Consider `CCCC(C)NC(=O)c1coc(C)n1` (stereo unspecified), for which the IC50 in experiment [1] and in experiment [2] was above 501 µM throughout.
For the compound `COC1CCN(C(=O)CCc2ccc(F)cc2F)C1` (stereo unspecified), the IC50 in experiment [1] was 206 µM; in experiment [2], 21.4 µM.
The corresponding values for `N[C@H]1CN(S(=O)(=O)c2cccc(Cl)c2)C[C@@H]1C1CC1` are 363 µM and above 501 µM.
Take `O=C(C1CC1)N1CCN(Cc2cccc(F)c2)CC1`: the IC50 in experiment [1] is above 501 µM; in experiment [2] it was 210 µM.
For the compound `CCCc1ccc(C(=O)N2CCCN(C)CC2)cc1`, the IC50 in experiment [1] is 270 µM; in experiment [2] it was above 501 µM.
On to `O=C(COc1ccc(F)cc1)Nc1ccon1`, for which the IC50 in experiment [1] was 186 µM; in experiment [2] it was above 501 µM.
The corresponding values for `CCCc1nc(CN2Cc3ncccc3C2=O)cs1` are 120 µM and 119 µM.
Consider `NCC(=O)N1CCCC(CCc2ccc(F)c(F)c2)C1` (stereo unspecified), for which the IC50 was 190 µM in experiment [1] and 183 µM in experiment [2].
For `CC(C)(N)CN1CCCN(c2ccc(F)cc2)CC1` the same measures were 203 µM and 265 µM.
Take `NCC(=O)N1CCCC(CCc2ccc(F)cc2)C1` (stereo unspecified): the IC50 in experiment [1] was 333 µM; in experiment [2] it was 310 µM.
For `Cc1cc(C)c(C#N)c(N2CCOCC(CO)C2)n1` (stereo unspecified) the same measures were above 501 µM and above 501 µM.
The corresponding values for `CCn1ccc(C(=O)NC(C)c2ccccc2)n1` (stereo unspecified) are 84.4 µM and 182 µM.
For `CC1=NOC(C(=O)NCCc2nc3c(s2)CCCC3)C1` (stereo unspecified) the same measures were 169 µM and 286 µM.
On to `N#Cc1nc(-c2ccccc2)oc1NCCCO`, for which the IC50 in experiment [1] is 243 µM; in experiment [2] it was above 501 µM.
The corresponding values for `CC(C(=O)Nc1ccc(Br)cc1)n1cnnn1` (stereo unspecified) are 393 µM and 199 µM.
With `CC(=O)N1CCc2onc(-c3ccc(F)c(F)c3)c2C1`, the IC50 is 393 µM in experiment [1] and 262 µM in experiment [2].
`O=C(c1ccc(Br)o1)N1CCN(Cc2ccco2)CC1`: the IC50 in experiment [1] is 97.2 µM; in experiment [2], 92 µM.
For `COc1ccc(-c2cc(NCCO)nc(N)n2)cc1C` the same measures were 280 µM and above 501 µM.
The corresponding values for `CNc1nc(C(=O)NC2COc3ccccc3C2)cs1` (stereo unspecified) are 130 µM and 262 µM.
For `CN(Cc1ccc(Oc2ccccc2)cc1)C(=O)CN` the same measures were 130 µM and 157 µM.
`CN1CCN(C(=O)CC2Cc3ccccc3C2)CC1`: the figures for the IC50 in experiment [1] and in experiment [2] were 96 µM and 43.7 µM, respectively.
Turning to `O=C(NCc1ccc2c(c1)OCO2)N1CCCCC1`, the IC50 in experiment [1] was 139 µM; in experiment [2] it was 43.3 µM.
In the case of `CC(C)c1ncc(C(=O)N2CCS(=O)(=O)CC2)cn1`, the IC50 in experiment [1] and in experiment [2] was above 501 µM throughout.
Turning to `COC(=O)COc1ccc2c(c1)OCO2`, the IC50 in experiment [1] was 140 µM; in experiment [2] it was above 501 µM.
In the case of `O=C(CCc1ccccc1)N1CC(c2cccnc2)C1`, the IC50 was 45.7 µM in experiment [1] and 25.3 µM in experiment [2].
The corresponding values for `CC(=O)c1cc(C(=O)NCCSC(F)(F)F)[nH]n1` are 274 µM and 79.5 µM.
For `CCCc1ccc(CN2C[C@H](OCC)[C@@H](O)C2)o1` the same measures were 298 µM and 241 µM.
For `Cc1cc(CN2CCC(Oc3cccnc3)CC2)on1` the same measures were above 501 µM and above 501 µM.
Regarding `NCC(=O)N1CCCC(CCc2ccc(F)cc2F)C1` (stereo unspecified), the IC50 in experiment [1] is 137 µM; in experiment [2] it was 310 µM.
The corresponding values for `Cc1ccc(F)c(C(=O)N[C@@H]2CNC[C@H]2O)c1Cl` are above 501 µM and above 501 µM.
For `CCCn1nnc(NC(=O)c2ccccc2F)n1` the same measures were 59.9 µM and above 501 µM.
Consider `CSc1cccc(CN(C)C(=O)CNC2CC2)c1`, for which the IC50 was 297 µM in experiment [1] and above 501 µM in experiment [2].
For `CSCCN(C)Cc1cn(-c2ccccc2)nn1` the same measures were above 501 µM and above 501 µM.
The corresponding values for `O=C(CO)N1CCCC(CCc2ccccc2F)C1` (stereo unspecified) are 196 µM and 142 µM.
With `COCCCN1CCN(c2ccccc2OC)CC1` [DIMETHOLIZINE], the IC50 was 346 µM in experiment [1] and above 501 µM in experiment [2].
